# From publication PMC5358776, “Insight into the mechanism of action of temporin-SHa, a new broad-spectrum antiparasitic and antibacterial agent” (PLoS ONE, 2017)
# Like-named read-outs stand apart in the source and are kept apart here. Where no end group is shown, it is not given here.
# Key:
# Human erythrocytes [1] = settings: 1 h
# Experimental: (§2) Hemolytic assays were also performed using erythrocytes obtained from fresh blood samples of Wistar male rats (Charles River Laboratories, France). The hemolytic activity was measured by incubating the peptide (1–200 μM, final concentrations) with erythrocytes (2 x 10^7 cells) in PBS (100 μl) for 1 h at 37°C, as previously described [23]. A parallel incubation in the presence of 0.1% (v/v) Triton-X100 was carried out to determine the absorbance associated with 100% hemolysis. […] For THP-1-derived macrophages, viability was determined by Trypan blue staining after incubation with peptide (1–100 μM, final concentrations). LC50 (average concentration of the peptide producing 50% cell lysis) and IC50 values were determined with GraphPad Prism 6.0 software and correspond to the mean obtained from three independent experiments carried out with three (erythrocytes, THP-1 monocytes, HepG2 and HFF cells) or six replicates (THP-1-derived macrophages).
# (§3) IC50 or LC50 values were determined for the different human cells mentioned above in the cytotoxicity assays.
# [2] = test system: S. enterica (serotype Enteritidis)
# Experimental: (§4) Activity against bacteria and yeasts was assessed with a liquid growth inhibition assay performed in 96-well microtitration plates, according to a previously described protocol [14], using mid-logarithmic phase cultures diluted in Mueller-Hinton (MH, Dominique Dutscher) broth (LB broth for E. faecalis strain and YPD medium for yeasts/fungi) to an A630 value of 0.01 (10^6 cfu/ml) and 2-fold serial dilutions of synthetic temporin (200–1 μM, final concentrations). The minimal inhibitory concentration (MIC) was determined as the mean value of three independent experiments, each performed in triplicate with negative (H2O) and positive (0.7% formaldehyde) controls.
# Yeasts/fungi = settings: for MICGM (geometric mean of the MIC values): 3 yeast/fungal strains of Table 3
# S. aureus ATCC 43300 = settings: strain resistant to methicillin and oxacillin; MH broth, 10^6 cfu/ml; mean of 3 independent experiments in triplicate
# Experimental: (§5) Listeria ivanovii Li4pVS2 (kindly provided by Jean-Marc Berjeaud, Université de Poitiers, France), and Streptococcus pyogenes ATCC 19615 (ATCC) were cultured in brain heart infusion (BHI, Sigma-Aldrich) medium under the same conditions.
# as §4
# E. coli ML-35p [3] = settings: MH broth, 10^6 cfu/ml; mean of 3 independent experiments in triplicate
# Experimental: as §5, §4
# Human fibroblasts (HFF) = settings: 72 h
# Human THP-1 monocytes = settings: 72 h
# [4] = test system: Human THP-1-derived macrophages; experiment: Cytotoxicity, Trypan blue staining; settings: 1–100 μM, mean of 3 independent experiments, six replicates
# Experimental: as §2, §3
# [5] = test system: Gram-negative and Gram-positive bacteria and yeasts/fungi; experiment: MIC, whole panel of strains; type: cell-based; settings: all the tested bacteria
# Gram-positive bacteria = settings: 7 Gram-positive strains of Table 3
# [6] = test system: L. infantum (intramacrophagic) amastigotes in THP-1-derived macrophages
# Experimental: Leishmania infantum (strain MHOM/MA/67/ITMAP-263), Leishmania major (strain MHOM/SU/73/5-ASKH), Leishmania tropica (strain MHOM/SU/74/SAFK27), Leishmania amazonensis (strain MHOM/BR/73/M2269), and Leishmania braziliensis (strain MHOM/BR/75/M2904) promastigotes (kindly provided by Francine Pratlong, Centre National de Référence des Leishmania, Montpellier, France) were cultured at 26°C in SDM-79 medium supplemented with 10% fetal calf serum (FCS, Gibco) [23]. […] L. infantum-infected human macrophages were obtained from human THP-1 monocytes, as previously described [23, 78].
# Intramacrophagic leishmanicidal activity of the peptides was assessed by incubating L. infantum-infected human macrophages with 2-fold serial dilutions of peptide (50–2.5 μM, final concentrations) for 4 days, as previously described [23]. THP-1-derived macrophages were infected with promastigotes from late log phase at a density of 5 x 10^5 cells/well (ratio 10:1) in RPMI medium for 24 h at 37°C with 5% CO2. […] The results are expressed as the means of two experiments performed with six replicates.
# [7] = test system: promastigotes of several species of Leishmania
# Experimental: (§6) Antiparasitic activity was evaluated against trypanosomatids, such as Leishmania and Trypanosoma. Antileishmanial activity was determined either by a luminescence-based assay (L. infantum, L. major and L. braziliensis) or by cell counting (FACSCalibur flow cytometer, Becton-Dickinson Biosciences, Woburn, MA, USA) after staining with propidium iodide (L. tropica and L. amazonensis), as previously described [23], using promastigotes or axenic amastigotes (1.25 x 10^6 parasites/ml) in mid-log phase and 5-fold serial dilutions of synthetic temporin (50–3.1 μM, final concentrations). Antitrypanosomal activity against T. brucei gambiense and T. cruzi was assessed by cell counting, similar to the L. tropica and L. amazonensis analysis, after incubation of the parasites (96 h for T. brucei gambiense and 120 h for T. cruzi) with the synthetic temporin, as previously described [23]. The half maximal inhibitory concentration (IC50) value was determined with GraphPad Prism 6.0 software (GraphPad Software, La Jolla, CA, USA) using a sigmoidal dose response (variable slope) curve fitting equation. The results are expressed as the means of three independent experiments performed in triplicate (luminescence-based assays) or in duplicate (cell counting-based assays).
# Rat erythrocytes = settings: 1 h
# Experimental: as §2, §3
# [8] = test system: L. amazonensis promastigotes
# Experimental: (§7) L. infantum axenic amastigotes were differentiated from promastigotes in MAA medium (supplemented with 20% FCS) and were grown at 37°C in 5% CO2 [23].
# (§8) Antiparasitic activity was evaluated against trypanosomatids, such as Leishmania and Trypanosoma. Antileishmanial activity was determined either by a luminescence-based assay (L. infantum, L. major and L. braziliensis) or by cell counting (FACSCalibur flow cytometer, Becton-Dickinson Biosciences, Woburn, MA, USA) after staining with propidium iodide (L. tropica and L. amazonensis), as previously described [23], using promastigotes or axenic amastigotes (1.25 x 10^6 parasites/ml) in mid-log phase and 5-fold serial dilutions of synthetic temporin (50–3.1 μM, final concentrations). […] The half maximal inhibitory concentration (IC50) value was determined with GraphPad Prism 6.0 software (GraphPad Software, La Jolla, CA, USA) using a sigmoidal dose response (variable slope) curve fitting equation. The results are expressed as the means of three independent experiments performed in triplicate (luminescence-based assays) or in duplicate (cell counting-based assays).
# [9] = test system: L. infantum (antimony resistant) promastigotes; settings: antimony-resistant parasites
# Experimental: as §6
# Human HepG2 = settings: MTT, 72 h, 37°C, 50–600 μM; mean of 3 independent experiments in triplicate
# [10] = test system: L. braziliensis promastigotes
# Experimental: as §7, §8
# [11] = test system: L. infantum (axenic) amastigotes
# Experimental: as §7, §8
# [12] = test system: C. parapsilosis ATCC 22019
# Experimental: (§9) Candida albicans ATCC 90028, Candida parapsilosis ATCC 22019 (ATCC), and Saccharomyces cerevisiae (laboratory collection) were cultured in yeast peptone dextrose (YPD, Sigma-Aldrich) medium at 30°C.
# (§10) The minimal inhibitory concentration (MIC) was determined as the mean value of three independent experiments, each performed in triplicate with negative (H2O) and positive (0.7% formaldehyde) controls.
# Gram-negative bacteria = settings: 6 Gram-negative strains of Table 3
# [13] = test system: L. infantum promastigotes
# Experimental: as §7, §8
# Human erythrocytes [14] = experiment: Hemolytic assay; settings: 1 h, 37°C, PBS, 2 x 10^7 cells; mean of 3 independent experiments in triplicate
# Experimental: as §2, §3
# E. coli ML-35p [15] = experiment: Time-kill assay; type: cell-based, Escherichia coli; settings: 120-min exposure, 12 μM, PBS, 10^6 cfu/ml
# Experimental: Time-kill assays were performed on bacteria and Leishmania infantum promastigotes. For bacteria (E. coli ML-35p and S. aureus ST1065, 10^6 cfu/ml), assays were performed as previously described, with final temporin concentrations of 6 and 12 μM. For parasite time-kill assays, Leishmania infantum promastigotes harvested in exponential phase were washed twice (1,000 x g, 10 min) with Hank's balanced salt solution (HBSS) supplemented with 20 mM glucose and then suspended in the same buffer to a density of 2.5 x 10^6 cells/ml. This suspension (800 μl) was incubated with 200 μl of a 5X temporin solution, and parasitic death was evaluated at different times by counting parasites (FACSCalibur) after staining with 1 μg/ml propidium iodide (Molecular Probes). Negative controls were assayed without peptides. Three experiments were carried out in triplicate for bacteria or in duplicate for parasites.
# [16] = test system: L. infantum promastigotes; settings: 3 μM, at 180 min, HBSS
# [17] = test system: L. infantum promastigotes; experiment: Cell cycle analysis, sub-G1 phase; type: cell-based, Leishmania infantum; settings: 50 μM, 48 h
# Experimental: (§1) Mid-log phase L. infantum promastigotes were synchronized at the G1/S border by treating with 10 mM hydroxyurea for 24 h at 26°C [81]. […] Then 400 μl of different concentrations of peptide (12.5, 25 and 50 μM, final concentrations) were added to 1.6 ml of the cell suspension. After 48 h incubation, samples were split into two volumes (2 x 1 ml) to analyze the cell cycle and DNA fragmentation. For cell cycle analysis, the first sample (1 ml) was centrifuged (1,000 x g, 10 min) and 100 μl of HBSS was added to the pellet. Then, 900 μl of cold 70% ethanol was gently added drop-wise for cell fixation. After an overnight incubation at -20°C, cells were washed (16,000 x g, 10 min, 4°C) with HBSS and resuspended in 1 ml of HBSS containing 100 μg of RNase A (Sigma-Aldrich) and 5 μg of propidium iodide. After 30 min of incubation at 37°C, samples were passed 5 times through a sterile plastic syringe fitted with a 27 gauge needle and analyzed by flow cytometry (FACSCalibur). For DNA fragmentation analysis, a TUNEL assay was performed on the second 1 ml sample. […] DNA strand breaks were detected by the addition of biotinylated nucleotides to the free 3′-hydroxyl ends of the DNA fragments using TdT (terminal deoxynucleotidyl transferase) and tagged with a streptavidin-FITC conjugate for subsequent detection by flow cytometry. […]
# [18] = test system: L. infantum promastigotes; experiment: DNA fragmentation, TUNEL assay; type: cell-based, Leishmania infantum; settings: 50 μM, 48 h
# Experimental: as §1
# [19] = MH broth, 10^6 cfu/ml, mean of 3 independent experiments in triplicate
# [20] = mean of 3 independent experiments in triplicate
# [21] = YPD medium, mean of 3 independent experiments in triplicate
# Experimental for A. baumannii ATCC 19606: as §4
# Experimental for C. albicans ATCC 90028: as §9, §10
# Experimental for E. coli ATCC 25922: as §5, §4
# Experimental for E. faecalis ATCC 29212: as §5, §4
# Experimental for K. pneumoniae ATCC 13883: as §4
# Experimental for L. ivanovii: as §5, §4
# Experimental for L. major promastigotes: as §7, §8
# Experimental for P. aeruginosa ATCC 27853: as §5, §4
# Experimental for S. aureus ATCC 25923: as §4
# Experimental for S. aureus ST1065: as §4
# Experimental for S. cerevisiae: as §9, §10
# Experimental for S. pyogenes ATCC 19615: as §5, §4
# Experimental for T. brucei gambiense: as §6
# Experimental for T. cruzi epimastigotes: as §6
compound,measurement,setting,value
"FLKGIVGMLGKLF-NH2 [[K^3]SHa, [K^3]temporin-SHa]",LC50,Human erythrocytes [1],50 µM
same,MIC,[2]; serotype Enteritidis,6 µM
same,IC50,"L. major promastigotes; promastigotes, 96 h",10 µM
same,MIC,S. aureus ATCC BAA-44; ATCC BAA-44,3 µM
same,MIC,A. baumannii ATCC 19606; ATCC 19606,3 µM
same,MIC,E. faecalis ATCC 29212; ATCC 29212,6 µM
same,MICGM (geometric mean of the MIC values),Yeasts/fungi,7.7 µM
same,MIC (range over strains),Yeasts/fungi; yeasts/fungi,3 to 25 µM
same,MIC,S. aureus ATCC 43300,3 µM
same,MIC,E. coli ML-35p [3],3 µM
same,IC50,Human fibroblasts (HFF),> 100 µM
same,IC50,"T. brucei gambiense; gambiense, 96 h",16 µM
same,IC50,Human THP-1 monocytes,48 µM
same,MIC,E. coli ATCC 25922; ATCC 25922,3 µM
same,LC50,[4],55 µM
same,MIC,L. ivanovii,3 µM
same,MIC (range over strains),[5],1 to 6 µM
same,MIC,S. aureus ST1065; ST1065,3 µM
same,MICGM (geometric mean of the MIC values),Gram-positive bacteria,2.8 µM
same,IC50,"[6]; intramacrophagic) amastigotes in THP-1-derived macrophages, 24 h",5 µM
same,MIC,S. aureus ATCC 25923; ATCC 25923,3 µM
same,IC50,[7]; 96 h,5 to 10 µM
same,LC50,Rat erythrocytes,26 µM
same,IC50,"T. cruzi epimastigotes; epimastigotes, 120 h",10 µM
same,MIC,P. aeruginosa ATCC 27853; ATCC 27853,6 µM
same,IC50,"[8]; promastigotes, 96 h",8 µM
same,MIC,S. cerevisiae; 96 h,3 µM
same,IC50,[9],9 µM
same,MIC,S. pyogenes ATCC 19615; ATCC 19615,1 µM
same,MIC,K. pneumoniae ATCC 13883; ATCC 13883,3 µM
same,IC50,Human HepG2,358 µM
same,IC50,[10]; 96 h,5 µM
same,IC50,"[11]; axenic) amastigotes, 96 h",20 µM
same,MIC,"C. albicans ATCC 90028; ATCC 90028, 96 h",6 µM
same,MIC,"[12]; ATCC 22019, 96 h",25 µM
same,MICGM (geometric mean of the MIC values),Gram-negative bacteria,3.8 µM
"FLSGIVGMLGKLF-NH2 [SHa, temporin-SHa]",IC50,"[13]; medium with serum, mean of 3 independent experiments in triplicate",18 µM
same,IC50,[13]; serum-free medium (values in parentheses),8 µM
same,MIC,[2]; [19],25 µM
same,IC50,L. major promastigotes; [20],13 µM
same,MIC,"S. aureus ATCC BAA-44; multidrug-resistant strain, MH broth, 10^6 cfu/ml, mean of 3 independent experiments in triplicate",6 µM
same,MIC,A. baumannii ATCC 19606; [19],6 µM
same,MIC,"E. faecalis ATCC 29212; LB broth, 10^6 cfu/ml, mean of 3 independent experiments in triplicate",12 µM
same,MICGM (geometric mean of the MIC values),Yeasts/fungi,31.1 µM
same,MIC,S. aureus ATCC 43300,6 µM
same,LC50,Human erythrocytes [14],25 µM
same,MIC,E. coli ML-35p [3],10 µM
same,IC50,"Human fibroblasts (HFF); MTT, 37°C, 1–100 μM, mean of 3 independent experiments in triplicate",> 100 µM
same,IC50,"T. brucei gambiense; 96 h incubation, cell counting, mean of 3 independent experiments in duplicate",14 µM
same,IC50,"Human THP-1 monocytes; MTT, 37°C, 1–60 μM, mean of 3 independent experiments in triplicate",> 60 µM
same,MIC,E. coli ATCC 25922; [19],10 µM
same,LC50,[4],60 µM
same,MIC,L. ivanovii; [19],6 µM
same,MIC,S. aureus ST1065; [19],6 µM
same,MICGM (geometric mean of the MIC values),Gram-positive bacteria,6 µM
same,IC50,"[6]; infected THP-1-derived macrophages, 4 days, mean of 2 experiments with six replicates",9 µM
same,killing,E. coli ML-35p [15],approximately 93%
same,MIC,S. aureus ATCC 25923; [19],3 µM
same,IC50,"[7]; read-out: IC50 (range over Leishmania species), promastigotes of L. infantum, L. major, L. amazonensis, L. braziliensis",7 to 18 µM
same,LC50,"Rat erythrocytes; 37°C, PBS, 2 x 10^7 cells, mean of 3 independent experiments in triplicate",25 µM
same,IC50,"T. cruzi epimastigotes; 120 h incubation, cell counting, mean of 3 independent experiments in duplicate",17 µM
same,MIC,P. aeruginosa ATCC 27853; [19],50 µM
same,IC50,"[8]; cell counting, mean of 3 independent experiments in duplicate",13 µM
same,killing,[16],38%
same,MIC,S. cerevisiae; [21],12 µM
same,IC50,[9],14 µM
same,MIC,S. pyogenes ATCC 19615; [19],6 µM
same,MIC,K. pneumoniae ATCC 13883; [19],12 µM
same,IC50,Human HepG2,560 µM
same,IC50,[10]; [20],7 µM
same,IC50,[11]; axenic amastigotes,20 µM
same,MIC,C. albicans ATCC 90028; [21],25 µM
same,MIC,[12]; [21],100 µM
same,MICGM (geometric mean of the MIC values),Gram-negative bacteria,14.4 µM
"CCCCCCCCCCCCCCCCOP(=O)([O-])OCC[N+](C)(C)C [Miltefosine, hexadecylphosphocholine]",Sub-G1 phase (% of cells),[17],29.1 % of cells
same,Sub-G1 phase (% of cells),[17]; listed as miltefosine,29 % of cells
same,DNA fragmentation (FITC-positive cells),[18],approximately 65%
